# Test results: patent US8435556B2, “Transdermal delivery of cannabidiol” (Alltranz, LLC, priority 2005, dated 2013)
# Several values for one entry are separate records, joined by “and”; a condition that tells them apart may be missing. Equal entries are not always repeated.
# Key:
# [1] = plasma THC and CBD concentrations after separate and co-administration
# [2] = human skin permeation of cannabidiol with permeation enhancers; type: in vitro ADME; details: enhancer 6% v/v
# From the text: The aim of the experiment was to evaluate the effect of permeation enhancers on human skin permeation of cannabidiol (CBD). The following permeation enhancers were used in the study: • LAUROGLYCOL 90-(Propylene glycol monolaurate 90%)-LG-90 • TRANSCUTOL HP (Purified diethylene glycol monoethyl ether)-TC-HP • LABRAFIL® M 1944 CS (Oleoyl Macrogolglycerides)-LF • LABRASOL® (Caprylocaproyl Macrogolglycerides)-LB • SUPER REFINED® NOVOL NF (Oleyl Alcohol)-OA
# A high-pressure liquid chromatography (HPLC) assay was used for the analysis of CBD in the samples. The HPLC system consisted of a Waters 717 plus Autosampler, Waters 1525 Binary HPLC Pump and Waters 2487 Dual λ Absorbance Detector with Waters Breeze software. A Brownlee C-18 reversed-phase Spheri-5 μm column (220×4.6 mm) with a C-18 reversed phase 7 μm guard column (15×3.2 mm) was used with the UV detector set at a wavelength of 215 nm. The mobile phase was comprised of acetonitrile: 25 mM phosphate buffer with 0.1% triethylamine pH 3.0 (80:20). The flow rate of the mobile phase was […] and 100 μL of the sample was injected onto the column.
# Human skin harvested during abdominoplasty was used for the diffusion studies. Skin sections were obtained by using a Padgett Instruments® dermatome set to 250 microns and stored at −20° C. […] Trans-epidermal water loss was measured (Evaporimeter EP1™, ServoMed, Sweden) after securing the skin in the cells. Pieces of skin with readings below 10 g/m^2/h were used for the diffusion studies. […] An excess quantity of CBD was added to the donor vehicle (propylene glycol:Hanks' buffer (80:20)) solution with and without permeation enhancers at 6% v/v, sonicated for 10 min, and then applied onto the skin. Excess quantity of the drug was used in the donor compartment throughout the diffusion experiment in order to maintain maximum and constant chemical potential of the drug in the donor vehicle. […]
# Drug disposition in the skin samples was measured at the completion of the 48 h experiment. […] Samples were analyzed by HPLC to determine CBD content in […] (pmol) of drug per gram of wet tissue weight. […]
# [3] = skin permeation study of WIN 55,212-2 in flow-through diffusion cells; type: in vitro ADME, human
# Method: The skin permeation study was carried out using skin excised during abdominal reduction surgery. The skin sample was harvested from the abdomen using a Padgett dermatome set to 250 μm; the skin sample was frozen at −20° C. for one week. The frozen skin sample was thawed and used at the 250 μm split-thickness for the diffusion study. Three PermeGear In-Line Flow Cells were used for the skin permeation study. The receiver fluid was 6% BRIJ® 98 (Polyoxyethylene 20 Oleyl Ether), in order to increase the partitioning of this extremely lipophilic drug into the receiver. The receiver fluid was pumped through the diffusion cells at a rate of one milliliter per hour. The receiver samples were refrigerated until HPLC analysis. The temperature of the diffusion cells was maintained at 32° C. with a circulating water bath. The diffusion experiment was initiated by charging the donor compartment with 0.25 mL of WIN 55,212-2 Mesylate in propylene glycol (50 mg/mL).
# Samples were analyzed using a HPLC system which consisted of a Waters 717 Autosampler, 501 Pumps, and a 484 Tunable UV Absorbance Detector with Millennium Chromatography Software. A reversed phase Beckman 5 μm particle 4.6 mm×25 cm C-18 column was used with the UV detector set at a wavelength of 215 nm. The mobile phase consisted of 0.05 M monobasic potassium phosphate:acetonitrile (300 mL:700 mL) at a flow rate of 2 mL/min.
# Skin permeation data were plotted as the cumulative amount of drug collected in the receiver compartment as a function of time. The lag times and steady-state fluxes were calculated using the terminal, linear portions of these curves. The slopes (Js) through these curves were determined using linear regression analysis. In all cases, the coefficients of determination for the lines were >0.99.
# Lag times were determined by extrapolating the steady-state curves to the X-axis. The permeability coefficient was calculated from Fick's law of diffusion: […]
# [4] = full-thickness human skin, Touitou et al. 1988; cited from earlier work
# [5] = in vitro permeation of Δ^9-tetrahydrocannabinol across human skin with various receiver solutions
compound,measurement,setting,value
"C=C(C)C1CCC(C)=CC1c1c(O)cc(CCCCC)cc1O (centres unmarked) [CBD, 2-[3-methyl-6-(1-methylethenyl)-2-cyclohexen-1-yl]-5-pentyl-1,3-benzenediol]","cannabidiol plasma concentration, coadministered with THC vs alone",[1]; FIG. 12,higher both initially and over time when coadministered
same,Cumulative amount permeated at 48 h,[2]; 48 h,193.21 ± 22.77 nmol and 338.11 ± 73.09 nmol
same,Lag Time,[2]; donor propylene glycol:Hanks' buffer (80:20),14.19 ± 1.59 h and 9.43 ± 2.47 h
same,Flux,"[2]; steady state, donor propylene glycol:Hanks' buffer (80:20) with excess CBD, receiver with 40% PEG 400, 32° C.",9.16 ± 1.41 nmol/cm^2/h
"Cc1c(C(=O)c2cccc3ccccc23)c2cccc3c2n1[C@H](CN1CCOCC1)CO3 [WIN 55,212-2, (R)-(+)-[2,3-dihydro-5-methyl-3-(4-morpholinylmethyl)-pyrrolo[1,2,3-de]-1,4-benzoxazin-6-yl]-1-naphthalenyl-methanone]",diffusion lag time,"[3]; 250 μm split-thickness skin, donor 50 mg/mL in propylene glycol, receiver 6% BRIJ 98, 32° C., 48 h",24 h
same,drug depletion from the donor compartment,"[3]; 48 h, donor not saturated",< 1%
same,mean flux,"[3]; steady state, donor 50 mg/mL in propylene glycol, receiver 6% BRIJ 98, n=3",2.6 μg/cm^2/h
"CCCCCc1cc(O)c2c(c1)OC(C)(C)[C@@H]1CC=C(C)C[C@@H]21 [Δ^8-THC, Δ^8-tetrahydrocannabinol]",flux rate,[4],3.5 μg/cm^2/hr
same,permeability coefficient,[4],0.036 ×10⁻⁶ cm/s
CCCCCc1cc(O)c2c(c1)OC(C)(C)[C@@H]1CCC(C)=C[C@@H]21 [Δ^9-tetrahydrocannabinol],"THC plasma concentration, coadministered with cannabidiol vs alone",[1]; FIG. 11,higher both initially and over time when coadministered
same,permeability difference of tape stripped skin relative to intact skin,[5]; 6% BRIJ 98 receiver solution,six fold
same,permeability enhancement with 6% BSA relative to 4% BSA,"[5]; four subjects, except subject 3",20-50%
same,mean lag time,[5]; intact skin,18.0 ± 3.4 h
same,permeability in presence of BRIJ 98 solution relative to BSA solution,"[5]; receiver BRIJ 98 (6%) vs BSA (4%), five subjects, except subject 4",2-5 fold
same,mean lag time,[5]; stripped skin,7.8 ± 3.9 h
same,permeability with 6% BRIJ 98 vs 0.5% BRIJ 98 receiver solution,"[5]; three subjects, differences not statistically significant",similar
same,permeability of tape stripped skin relative to intact skin,[5]; various receiver solutions,2-3 times
